# In patent US4956381A, “Treating tissue calcium depletion or degenerative processes in bone or cartilage” (Sandoz Ltd., priority 1987, dated 1990):
# Where two headings read alike, the source gives them in different places.
# How the values were obtained:
# IL-1 = IL-1 induced secretion of metalloproteinase (MP) in chondrocytes; format: cell-based; settings: 2 days incubation
# Method: Furthermore the influence on IL-1 induced secretion of MP is determined using chondrocytes as a target system for IL-1. IL-1 (Genzyme Corporation,USA) is added with or without a COMPOUND OF THE INVENTION or Dexamethasone (control) to chondrocytes and the activity or metalloproteinase is determined in the supernatant media of 2 days incubation period.
# Calvaria halves = assay: Prevention of bone resorption: calcium release from calvaria; format: cell-based, Swiss albino mice; settings: Mus musculus
# Method: (§1) Calvaria halves (frontal and parietal parts) from 4-5 day Swiss albino mice are cultured on stainless steel grids in BGJ bone tissue culture medium, supplemented with 1 mg/ml BSA at the interphase of medium and gas in a humidified atmosphere (95% air/5% CO2 ) at 37° C. - c.f. Reynolds et al. in "Organ Culture in Biomed. Res." eds. Balls and Mamichendam, Cambridge University Press, p.p. 355-366 (1976).
# (§2) Influence of test substance at varying concentrations on calcium release into :he test medium in the presence of calcium release stimulators [PGE2, LPS or […] (1,25D3)]is determined. For this purpose calcium concentrations are measured in bone culture supernatants obtained from 72 and 144 hour cultures and in TCA extracts of the calvaria at the end of culture by spectrometric methods [Gindler et al., Am. J. Clin. Pathol. 58, 376-382 (1972)]. Activity of lysosomal enzyme N-acetyl-glucose-aminidase in bone culture supernatants and in Triton 100 extracts of calvaria after culture is also determined employing the method of Banerjee and Basu, Biochem. J., 45, 113-118 (1975). Changes in enzyme activity are expressed as μ units/calvarium half and as % release.
# (§3) (For the calculation of IC50 values the difference between resorption rate in control cultures and resorption in maximally stimulated cultures is taken as 100 %. The IC50 is taken as the concentration of test substance which inhibits maximum resorption by 50 %)
# IL-1β = assay: RIA-Kit IL-1 quantification in human monocyte cultures; format: cell-based
# Method: Mononuclear cells are obtained from the blood of healthy volunteers via centrifugation and cultivated on tissue culture dishes with test compound at varying concentrations [Schnyder et al., J. Immunol., 138, 496-503 (1987)]. The non-adherent lymphocytes are removed after 4 hours by washing several times. Fresh medium, test compound and lipopolysaccharide (LPS) as stimulant are added and the monocytes incubated for further 19 hours. The pooled culture media are diluted 1:10 (v:v) with fresh medium and added to confluent rabbit chondrocytes. MP activity in the chondrocyte culture medium is assayed after a further 2 days. COMPOUNDS OF THE INVENTION, in particular compounds D2 and K1, are active in suppressing monokine release in the above test method at concentrations of the order of from about 30 to about 100 μM. Thus determined ED50 S for the compounds D2 and K1 each in substantially pure Z-isomeric form in a series of 3 or 7 separate experiments each with 3 parallel determinations are, for both compounds, of the order of 60 to 100 μM.
# The procedures of example 1.1.b. above are repeated and IL-1 concentrations in recovered, undiluted culture medium determined employing a CISTRON IL-1 radioimmuno assay kit (the CISTRON kit is obtainable from Cistron, 10, Bloomfield Avenue, P.O. Box 2004, Pine Brook, NJ 07 058 USA. It is IL-1β specific and recognises both intra- and extra-cellular material).
# human monocytes = assay: Effect on the secretion of monokines (IL-1, TNF-α, IL-6); format: cell-based; settings: IL-1 and TNF-α by RIA, IL-6 by bioassay
# Method: Besides IL-1, TNF-α and IL-6 are two well recognized monokines that are released from stimulated monocytes.
# Culture media from human monocytes are prepared as described above. The IL-1 and TNF-α content is monitored by the RIA-test, IL-6 by bioassay as disclosed below.
# To measure IL-6 in conditioned media from human monocytes, 2.4×10^4 cells/ml B13.29 in 0.2 ml are cultured on 96-well plates (Costar) for 48 h with culture media, diluted in serum free Iscove's modified Dulbecco's medium supplemented with 200 U/ml of recombinant IL-6, 50 μM 2-mercaptoethanol and antibiotics. The proliferation rates are determined using a ^3 H-thymidine pulse (1 μC/well) during the final 6 h. The incorporated radioactivity is collected on filter paper, counted and related to a standard preparation of IL-6.
# lysozyme = assay: Secretion of lysozyme from human monocytes; format: cell-based; settings: human monocyte culture media
# Method: Culture media from human monocytes are prepared as disclosed above. Lysozyme and lactate dehydrogenase (LDH) are monitored kinetically by using a Twinreader (Flow Laboratories AG) linked to a personal computer. Samples (50 μl) for LOH are mixed with 200 μl substrate mixture, containing in final concentrations 50 mM phosphate buffer, pH 7.5, 0.8 mM sodium pyruvate, 0.24 mM NADH and 0.04 % bovine albumin and the changes in absorbance at 340 nm are measured 11 times at 1-min intervals. The computer calculates the initial velocities which are used to determine the units. Samples (50 μl) for lysozyme are mixed with 100 μl suspension of 1.2 mg/ml M. Lysodeikticus in 67 mM phosphate buffer pH 6.2 and the changes in turbidity at 492 nm monitored 11 times at 4-min intervals. With every assay series, a calibration curve is made with crystalline hen egg-white lysozyme [J. Schnyder et.al., J. Exp. Med. 148, 435 (1978)]. No significant leakage of LDH from control and treated cell cultures is observed.
# pulmonary fibrosis = assay: Pulmonary fibrosis (bleomycin induced); format: in vivo, New Zealand white rabbits; settings: ca. 2.5 to 60 mg/kg/day p.o.; substantially pure Z-isomeric form; vs placebo
# Method: Testing is carried out in accordance with the general methodology described by G. J. Laurent et al. in Eur. J. Clin. Invest. (1981) 11, 441-448. Pulmonary fibrosis is induced in groups of 4 New Zealand white rabbits (aged 127 days at commencement of the experiment), each weighing 2.0-2.5 kg, by intratracheal instillation of 10 mg/kg bleomycin. The lungs of test animals are examined 2, 4 and 8 weeks later.
# [1] = tested on: lysosomal enzyme N-acetyl-glucose-aminidase; assay: Prevention of bone resorption: N-acetyl-glucose-aminidase release from calvaria; format: cell-based, Swiss albino mice; settings: Mus musculus, read-out: IC50 N-acetylglucose-aminidase
# Method: as §1, §2, §3
# [2] = CISTRON IL-1 radioimmuno assay, human monocytes
smiles,measurement,setting,value
"COC1=Cc2ccccc2/C(=C/C(=O)O)c2ccsc21 [Compound D2, [10-Methoxy-4H-benzo[4,5]cyclohepta[1,2-b]thiophen-4-ylidene]-acetic acid]",influence on IL-1 induced secretion of MP,IL-1,do not influence the IL-1 induced secretion of MP
same,IC50,"Calvaria halves; in the presence of 1,25D3",38 µM
same,IC50,Calvaria halves; in the presence of LPS,28 µM
same,IC50,Calvaria halves; in the presence of PGE2,22 µM
same,extra-cellular IL-1 level,IL-1β; [2],extra-cellular content is reduced significantly
same,intracellular IL-1 level,IL-1β; [2],remain substantially unaffected
same,IC50,"IL-1β; Homo sapiens, Monocyte, 19 h, substantially pure Z-isomeric form, 2-8 experiments, 3 parallel determinations, read-out: ED50 for extra-cellular IL-1 level suppression",~40 µM
same,inhibition of release of IL-1 compared with IL-6 and TNF-α,human monocytes,inhibit the release of IL-1 in a more significant rate than that of IL-6 and TNF-α
same,release of lysozyme,lysozyme,reduces the release of lysozyme only marginally and not under the level of unstimulated controls
same,pulmonary fibrosis,pulmonary fibrosis,substantial reduction of pulmonary fibrosis
same,IC50,"[1]; in the presence of 1,25D3",37 µM
same,IC50,[1]; in the presence of LPS,8.3 µM
same,IC50,[1]; in the presence of PGE2,7.9 µM
